Test results as given in patent US6949521B2, “Therapeutic azide compounds” (priority 1995, dated 2005).
Where two headings read alike, the source gives them in different places.

Columns and labels:
[1] = In vitro stability in PBS, mouse serum, brain and liver homogenate (FAAddP, FMAddA); assay type: in vitro ADME; conditions: for stability in phosphate buffer saline: PBS pH 7.4, 37° C.; for half-life at 70 μM: mouse
Method: In vitro stability in serum, brain and liver homogenate. Liver and brain homogenate were prepared in a 1: 1 (g:mL) ratio with isotonic 0.05 M phosphate buffer, pH 7.4. FAAddP (70 μM) or FMAddA (50 μM) were added to the mouse serum, the brain homogenate or the liver homogenate and incubated in a shaker water bath at 37° C. Aliquots of 100 μL were removed at time zero and at selected times for up to 6 hours. Concentrations of the compounds were determined by HPLC.
(§1) Analytical Methodology. […] The brain or liver tissue were homogenized in a 1:1 (g:mL) ratio with ice cold isotonic 0.05 M phosphate buffer, pH 7.4. […] Acetonitrile (600 μL) containing 0.1% acetic acid was added while vortexing to precipitate proteins. The tubes were centrifuged at 3,000 rpm for five minutes and the supernatant was transferred to a clean tube. Supernatant was evaporated to dryness under a stream of nitrogen gas at room temperature. The residual film was reconstituted in 110 μL of mobile phase and 50 μL was injected onto the HPLC.
(§2) Chromatographic separations were performed using a Hypersil ODS column 150×4.5 mm, 5 μm particle size (Alltech Associates, Deerfield, Ill.) preceded by a guard column packed with 30-40 μm pellicular Perisorb RP-18. Mobile phase flow rate was 2 mL/min. For the analysis of FAAddP and 2′-F-ara-ddA, the mobile phase consisted of 7% (v/v) acetonitrile in 80 mM sodium acetate, pH 5.0. […] Eluants were monitored at a UV wavelength of 260 nm.
(§3) Nucleoside standards ranging from 0.04 μg/mL to 100 μg/mL, prepared in blank PBS, serum, brain homogenate and liver homogenate were treated the same as unknown samples. Samples with nucleoside concentrations greater than 100 μg/mL were diluted with the appropriate blank matrix.
Data analysis in vitro studies.

[2] = target: T1, adenosine deaminase (type VII from calf intestinal mucosa) (Bos taurus, UniProt P56658); assay: Deamination by adenosine deaminase (2′-fluoronucleosides); assay type: biochemical
T1 construct: type VII from calf intestinal mucosa; purchased Sigma Chemical Co., St. Louis, Mo. type VII; host or cells: calf intestinal mucosa
T1 sequence (P56658 1-363): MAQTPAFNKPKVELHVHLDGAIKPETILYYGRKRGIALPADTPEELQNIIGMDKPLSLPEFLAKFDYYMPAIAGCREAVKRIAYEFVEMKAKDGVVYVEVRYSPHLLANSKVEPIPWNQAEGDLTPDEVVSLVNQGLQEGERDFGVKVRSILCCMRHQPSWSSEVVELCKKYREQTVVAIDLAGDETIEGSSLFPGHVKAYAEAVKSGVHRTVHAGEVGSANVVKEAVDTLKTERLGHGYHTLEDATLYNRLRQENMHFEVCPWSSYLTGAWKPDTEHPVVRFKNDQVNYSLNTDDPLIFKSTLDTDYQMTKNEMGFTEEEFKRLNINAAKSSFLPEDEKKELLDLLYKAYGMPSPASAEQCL
Method: Deamination of 2′-F-ara-ddA and FMAddA by adenosine deaminase. Samples (1.5 mL) of 2′-F-ara-ddA (80 μM) or FMAddA (50 μM) were prepared in 0.05 M isotonic phosphate buffer, pH 7.4, and placed into a shaking water bath at 37° C. The reaction was initiated by the addition of 15 μL of adenosine deaminase (type VII from calf intestinal mucosa, Sigma Chemical Co., St. Louis, Mo.). The final activity in the incubation media was 0.05 U/mL for 2′-F-ara-ddA and 1.0 U/mL for FMAddA. At specified time intervals, aliquots of 100 μL were withdrawn for the determination of 2′-F-ara-ddA and 2′-F-ara-ddI or FMAddA and 2′-F-ara-ddI concentrations.
Mobile phase flow rate was 2 mL/min.

in vivo = conditions: mouse, in vivo; for half-life: t½
Text: Animal studies. […] Animal studies were approved by the University of Georgia Animal Care and Use Committee and conducted in accordance with guidelines established by the Animal Welfare Act and the National Institutes of Health Guide for the Care and Use of Laboratory Animals. […] Animals were acclimatized to this environment for one week prior to the experiments.
At selected time intervals, mice (three animals per each time point) were anesthetized with diethyl ether and sacrificed by exsanguination via left ventricular heart puncture. Serum was harvested from blood collected. The brain was excised, rinsed with normal saline, blotted dry and weighed.
as §1, §2, §3
Data analysis in vivo studies. Nucleoside concentration as a function of time data were analyzed by a non-compartmental technique. […] Relative brain exposure (re) was calculated from AUCbrain/AUCserum.

[3] = system: microsomal fraction of the human liver homogenate; assay: Azido reduction assay
Method: Briefly, incubation mixtures contained either 1.5 mg of human liver fraction protein (homogenate or supernatant fractions following centrifugation) or 1.5 mg microsomal protein, 5.0 mM MgCl2, 6.0 mM NADPH and 0.4 mg/mL of 6-AAP in 0.1 M phosphate buffer saline at pH 7.4 (final volume of 0.2 mL). The reaction was initiated by adding NADPH and conducted at 37° C. for 60 minutes under nitrogen. Reactions were terminated by heating at 100° C. for 30 seconds and the proteins were removed by centrifugation at 14,000 g for six minutes. Aliquots (100 μL) were then analyzed for nucleosides by HPLC. Control incubations were performed in the absence of protein.
Inhibition of azido reduction assay: Assays were performed using 1.5 mg microsomal protein as described above following either a 45 second exposure to carbon monoxide or a 5 minute pre-incubation with 1 mM metyrapone prior to the addition of NADPH.

[4] = Pharmacokinetics in mouse serum after iv and oral administration of cordycepin or its azide derivative; assay type: in vivo, mice
Method: 100 mg/kg of cordycepin or the azide derivative of cordycepin were administered intravenously (iv) (dissolved in methylsulfoxide (20 mg/ml)), or orally (dissolved in 30% glycerin (8.3 mg/ml)). Three animals for each time point were sacrificed at 0.08, 0.25, 0.5, 0.75, 1.0, 1.5, 2.0, 3.0 and 4.0 h after drug administration. Blood (serum) was collected and immediately analyzed.
An AzdU was used as an internal standard (20 μg/ml) to measure the azide derivative concentrations in serum. Tubes were vortexed and centrifuged at 9,000 rpm for 5 min.
To neutralize, perchloric acid supernatant was transferred into a clean tube with 160 μl of concentrated sodium tetraborate solution (pH 6.5). Tubes were vortexed again and centrifuged at 12,000 rpm for 15 min. Samples were held at 0° C. during analysis.
Chromatographic separations were carried out on a Shimadzy gradient HPLC system (Shimadzy Corporation, Kyoto, Japan), which was equipped with a Model SPD-10A UV detector, a Model L-10AS pump, a Model SIL-10A autosampler, a controller Model SCL-10A and a Model CR-501 reporting integrator. Chromatography was performed on an Alltech Hypersil ODS (5 μm particle size, 4.6×250 mm, Ailtech Associates, Deerfield, Ill.) to determine cordycepin and its metabolite. The azide derivative of cordycepin was analyzed on an Alltech Hypersil BDS column (5 μm particle size, 4.6×250 mm, Alltech Associates, Deerfield, Ill.).
The mobile phase for cordycepin and metabolite analysis in serum consisted of 3% acetonitrile in 20 mM sodium borate and 10 mM EDTA (pH 6.5) at a flow of 1.4 ml/min and the mobile phase for azide derivative analysis in serum consisted of 3% acetonitrile 20 mM in potassium phosphate (pH 4.0) at a flow of 1.5 ml/min. The UV detector was set at 258 nm for analysis of cordycepin and metabolite and at 290 nm for the azide derivative.
The limit of quantitation was 0.05 μg/ml for cordycepin and metabolite and 0.5 μg/ml for the azide derivative.
Plasma concentration versus time data for nucleosides were analyzed by noncompartment methods. […] Prog. Biomed. (1983) 16:203-216.
Absolute bioavailability (F) of the azide derivative was calculated from AUCor/AUCiv, where AUC values were determined from serum nucleoside concentration versus time data.
Relative exposures for cordycepin and its metabolite in serum after or versus iv administration of the derivative were calculated from AUCor/AUCiv.

[5] = In vitro metabolism study of 6-AAP and ara-A in mouse liver homogenate, serum and brain homogenate
Method: (§4) All the solvents were of HPLC grade. Chromatography was performed on an Altech Hypersil ODS C18 (5 μm particle size, 4.5×150 mm, Altech Associates, Deerfield, Ill.).
(§5) In vitro metabolism study. Female NIH Swiss mice (Harland Sprague-Dawley, Indianapolis, Ind.) were sacrificed and serum, liver and brain tissues were collected before each experiment. Serum was collected from several animals. The brain and liver were washed in normal saline at 4° C., wiped and then weighed. […] Samples and blanks of volume 400 μL were collected at 0, 5, 15, and 30 minutes and at 1, 2, 3, 4 and 5 hours.
(§6) To measure the analyte concentrations in serum, liver or brain homogenate, 400 μL of sample was mixed with 50 μL of internal standard (AzdU, 5 μg/mL) and 0.7 mL of acetonitrile. After centrifugation, the supernatant was decanted to another tube and treated with anhydrous Na2SO4, then vortexed for one minute and centrifuged again. The organic layer was separated and evaporated under nitrogen stream at room temperature. The residue was reconstituted in mobile phase A and filtered through MPS-I micropartition system (3KD membranes (Amicon Inc., Beverly, Mass.) by centrifugation for 50 minutes at 2000 rpm to further clean-up the samples. 100 μL of filtrate was injected for analysis.

in vitro = conditions: female, NIH Swiss, mouse, liver homogenate
Method: as §4, §5, §6

[6] = female, NIH-Swiss, iv, 55 mg/kg
[7] = female, NIH-Swiss, po, 55 mg/kg
[8] = female, NIH Swiss, mouse, in vivo, iv, 100 mg/kg
[9] = female, NIH Swiss, mouse, in vivo, po, 100 mg/kg
[10] = 6-AAP incubated in mouse liver homogenate
[11] = mouse serum, after iv azide derivative 100 mg/kg
[12] = mouse serum, after oral azide derivative 100 mg/kg

With `CNc1ncnc2c1ncn2[C@@H]1O[C@H](CO)C[C@@H]1F` [FMAddA, N^6-methyl-2′,3′-dideoxy-2′-fluoro-β-D-arabinofuranosyladenine] the “stability in phosphate buffer saline” value [1] was “stable”, the “half-life in brain homogenate” value ([1]; mouse brain homogenate) was “stable” and the “t1/2 in liver homogenate (metabolized to 2′-F-ara-ddI)” value ([1]; mouse liver homogenate) was 546 min. For the same compound, the “degradation half-life in mouse serum” value ([1]; mouse serum, 37° C.) was “stable”, the “t½ upon addition of adenosine deaminase to PBS” value ([2]; PBS + adenosine deaminase) was 27.6 min and the “extent of conversion to 2′-F-ara-ddI upon addition of adenosine deaminase” value ([2]; PBS and brain homogenate + adenosine deaminase) was “virtually all of the prodrug was converted”. The “t1/2 upon addition of adenosine deaminase to brain homogenate” value ([2]; brain homogenate + adenosine deaminase) was 222 min, the “intravenously administered dose of prodrug converted to 2′-F-ara-ddI” value (in vivo) was 5.6% and the “Steady-state volume of distribution” value (in vivo; iv) was 0.79 L/kg. It also gave a Total clearance (in vivo; iv) of 32.2 mL/min/kg.
With `[N-]=[N+]=Nc1ncnc2c1ncn2C1OC(CO)CC1F` [FAAddP, 6-azido-2′,3′-dideoxy-2′-fluoro-β-D-arabinofuranosylpurine] the “stability in phosphate buffer saline” value [1] was “stable”, the half-life at 70 μM ([1]; brain homogenate, pH 7.4, mouse brain homogenate, read-out: half-life in brain homogenate (converted)) was 366 min and the half-life at 70 μM ([1]; liver homogenate, pH 7.4, mouse liver homogenate, biphasic, after initial 45 minutes, read-out: t1/2 in liver homogenate, subsequent slower phase (converted)) was 464 min. For the same compound, the half-life at 70 μM ([1]; liver homogenate, pH 7.4, mouse liver homogenate, biphasic, initial phase, read-out: t1/2 in liver homogenate, initial 45 minutes (converted)) was 28.8 min, the half-life at 70 μM ([1]; mouse serum, 37° C., read-out: degradation half-life in mouse serum (converted)) was 145 min and the “azido reduction (metabolites formed)” value [3] was “metabolized to 2′-F-ara-ddA and 2′-F-ara-ddI”. The “direct conversion to 2′-F-ara-ddI by adenosine deaminase” value ([2]; in vitro biotransformation) was “negligible rate”, the “intravenously administered dose of prodrug converted to 2′-F-ara-ddI” value (in vivo; female, NIH-Swiss) was “Approximately 30%” and the clearance (in vivo; female, NIH-Swiss, iv) was 18.7 mL/min/kg. For the same compound, the t½ (in vivo; [6]) was 13.2 min, the half-life (in vivo; [6]) was 13.2 min and the AUC/Dose (in vivo; [7]) was 0.19 μM · h/μmol/kg. It also gave a bioavailability (in vivo; [7]) of 19%, an AUC (in vivo; female, NIH-Swiss, po, 55 mg/kg, AUC0-τ) of 34.2 µM·h and a half-life (in vivo; [7]) of 91.8 min.
Work on `O=c1[nH]cnc2c1ncn2[C@@H]1O[C@H](CO)C[C@H]1O` [Metabolite, 3′-deoxyinosine] yielded an AUC(0-inf) [4, 8] of 3680 ± 260 ng·h/mL, a half-life [4, 8] of 30 min and an AUC(0-inf) [4, 9] of 5890 ± 590 ng·h/mL. For the same compound, the detection in serum [4, 9] was “Neither 3′-deoxyinosine nor cordycepin were detected” and the half-life [4, 9] was 39 min.
Work on `O=c1[nH]cnc2c1ncn2[C@@H]1O[C@H](CO)[C@@H](O)[C@@H]1O` [Ara-H, 9-(β-D-arabinofuranosyl)hypoxanthine] yielded a Kel [5, 10] of 0.26 h⁻¹, a T1/2 [5, 10] of 147 min and a Kel ([5]; Ara-A incubated in mouse liver homogenate) of 0.31 h⁻¹. The half-life at 100 μg/mL (in vitro) was 134 min.
In the case of `[N-]=[N+]=Nc1ncnc2c1ncn2[C@@H]1O[C@H](CO)C[C@H]1O` [Azide Deriv., N^6-azido-β-D-3′-deoxyribofuranosyl purine], the “absolute bioavailability after oral administration” value ([4]; mice, azide derivative) is reported as 94%, the “AUC0→∞ iv” value [4, 11] is reported as 47200 ± 4010 ng·h/mL and the “Cmax (maximal measured concentration) iv” value [4, 11] is reported as 143000 ± 33400 ng/mL. The T½ iv [4, 11] was 21.6 min, the T½ iv ([4]; mouse serum, after iv azide derivative 100 mg/kg, listed as azide derivative) was 21 min and the “AUC0→∞ oral” value [4, 12] was 44500 ± 2780 ng·h/mL. The “Cmax (maximal measured concentration) oral” value [4, 12] was 48200 ± 12300 ng/mL and the T½ oral [4, 12] was 31.8 min.
`Nc1ncnc2c1ncn2[C@@H]1O[C@H](CO)C[C@H]1O` [Cordycepin, 3′-deoxyadenosine, reference compound] showed an AUC(0-inf) ([4]; female, NIH Swiss, in vivo, mouse serum, after iv azide derivative 100 mg/kg, read-out: AUC0→∞ iv) of 2170 ± 350 ng·h/mL, a Cmax ([4]; female, NIH Swiss, in vivo, mouse serum, after iv azide derivative 100 mg/kg, read-out: Cmax (maximal measured concentration) iv) of 3890 ± 1720 ng/mL and a half-life ([4]; female, NIH Swiss, in vivo, mouse serum, after iv azide derivative 100 mg/kg, read-out: T½ iv (converted)) of 14.4 min. It also gave an AUC(0-inf) ([4]; female, NIH Swiss, in vivo, mouse serum, after oral azide derivative 100 mg/kg, read-out: AUC0→∞ oral) of 1630 ± 150 ng·h/mL, a Cmax ([4]; female, NIH Swiss, in vivo, mouse serum, after oral azide derivative 100 mg/kg, read-out: Cmax (maximal measured concentration) oral) of 1180 ± 600 ng/mL and a half-life ([4]; female, NIH Swiss, in vivo, mouse serum, after oral azide derivative 100 mg/kg, read-out: T½ oral (converted)) of 45.6 min. The “time of detection of cordycepin in serum above 0.05 μg/ml, iv” value ([4]; female, NIH Swiss, mouse, in vivo, iv) was no more than 1.5 h, the “time of detection of cordycepin in serum above 0.05 μg/ml, oral” value ([4]; female, NIH Swiss, mouse, in vivo, po) was no more than 3 h and the detection in serum [4, 9] was “Neither 3′-deoxyinosine nor cordycepin were detected”. For the same compound, the “re - relative exposure: AUC ratio oral vs. intravenous (AUCor/AUCiv)” value ([4]; mouse serum, after azide derivative 100 mg/kg) was 0.75, the “cordycepin in serum samples collected 10 min later” value ([4]; mouse, in vivo, iv, 100 mg/kg) was “not recovered” and the “cordycepin in serum samples collected at 5 min” value ([4]; mouse, in vivo, iv, 100 mg/kg) was “trace amount”.
